Values quoted from earlier work in patent US8067367B2, “Methods of increasing platelet and hematopoietic stem cell production” (Janssen Pharmaceutica, N.V., priority 2002, dated 2011).

Key:
CD34+ cells = conditions: normal volunteers
CD34+ stem cells = conditions: rhTPO with G-CSF; pilot study
[1] = test system: HSCs in adult bone marrow; conditions: exogenously added TPO; after bone marrow transplantation
[2] = single dose of TPO, cancer patients

Thrombopoietin [TPO]
CD34+ cells in the peripheral blood (CD34+ cells): 16×10^3 cells/ml | mobilization and apheresis yields of CD34+ stem cells in response to G-CSF (CD34+ stem cells): able to enhance the mobilization and apheresis yields of CD34+ stem cells | HSC expansion defect in tpo−/− mice [1]: rescued this defect | increase in circulating CD34+ cells (circulating CD34+ cells; 3-7 days after a single dose of TPO, cancer patients with otherwise normal hematopoiesis): 6 fold | increase of committed megakaryocytic subfraction (CD34+CD41+CD14−) (circulating CD34+ cells; [2]): ~15 fold | increase of stem cell enriched subfraction (CD34+ Thy+Lin−) (circulating CD34+ cells; [2]): ~9 fold
